± gives the expanded uncertainty stated by the source.
Details: Liquid; for mass density: 298.2 K, 101.33 kPa, Vibrating tube method; for vapor or sublimation pressure / Normal boiling temperature: Ebulliometric method (Recirculating still)

Compound | mass density [kg/m3] | vapor or sublimation pressure (423.8 K) [kPa] | Normal boiling temperature [°C] | vapor or sublimation pressure (353.3 K) [kPa] | vapor or sublimation pressure (371.4 K) [kPa] | vapor or sublimation pressure (417.5 K) [kPa] | vapor or sublimation pressure (383.4 K) [kPa]
Cc1ccccc1C [1,2-dimethylbenzene] | 875.66 ± 0.24 | – | 144.4 ± 1 | – | – | 101.3 ± 1.1 | –
Cc1ccccc1 [toluene] | 862.18 ± 0.24 | – | 110.2 ± 1 | – | – | – | 101.3 ± 1.1

The next lines start with results.

mass density [kg/m3] | vapor or sublimation pressure (423.8 K) [kPa] | Normal boiling temperature [°C] | vapor or sublimation pressure (353.3 K) [kPa] | vapor or sublimation pressure (371.4 K) [kPa] | Compound | vapor or sublimation pressure (417.5 K) [kPa] | vapor or sublimation pressure (383.4 K) [kPa]
714.07 ± 0.24 | 101.3 ± 1.1 | 150.7 ± 1 | – | – | CCCCCCCCC [nonane] | – | –
873.66 ± 0.24 | – | 80.2 ± 1 | 101.3 ± 1.1 | – | c1ccccc1 [benzene] | – | –
679.52 ± 0.24 | – | 98.2 ± 1 | – | 101.3 ± 1.1 | CCCCCCC [heptane] | – | –

— the NIST ThermoML archive (doi:10.1016/j.fluid.2013.05.016)
